This is an account of results in patent US5804583A, “Pyrimidinone derivatives fused to nitrogen heterocycles having a II antagonistic activity” (Istituto Luso Farmaco D'Italia, priority 1993, dated 1998).

The structures appear in SMILES notation.

In test [1] the target is A II receptor. Kind of test: receptor binding test: displacement of 125I-Sar1-Ile8-AT II or [3H] AT II in the rat adrenal cortex. From the text:
(§1) The compounds described in the present invention act as antagonists at the A II receptor level. For the characterization and the evaluation of the effectiveness of the compounds of the invention, in vitro tests (such as the inhibition of the A II-induced contraction in the rabbit aorta and the displacement of ^125 I-Sar^1 -Ile^8 -AT II or [^3 H] AT II in the rat adrenal cortex) and an in vivo test (the inhibition of the A II-induced pressory response in the ganglio-blocked normotensive rat) were selected.
A general note: Loss of bound radioactivity is the signal in a displacement assay; it reports binding, not function.

The test system of test [2] is A II receptor. Kind of test: inhibition of the A II-induced contraction in the rabbit aorta.
Source text: as §1

For orientation: Ki means the equilibrium dissociation constant of an inhibitor or competing ligand from its target. A low value points to tighter binding. For `CCCCc1c(Cc2ccc(-c3ccccc3-c3nnn[nH]3)cc2)c(=O)nc2n1C(C)C(=O)N2` (centres unmarked) [ex.6, 5-butyl-3-methyl-6-[[2'-(1H-tetrazol-5-yl)biphenyl-4-yl]methyl]imidazo[1,2-a]pyrimidin-2,7-dione], at A II receptor [1], affinity was put at a Ki of 5 nM. Further, the PKB with A II receptor [2] is listed as 10.4.
